Laboratory results taken from patent US12527782B2, “Use of hexokinase 2/mitochondria-detaching compounds for treating hexokinase-2 (HK2)-expressing cancers” (Vidac Pharma Ltd., priority 2016, dated 2026).
Where “and” joins values, the source holds several entries; their conditions need not be identical. Equal entries are not always repeated.

Key:
[1] = system: Lung (NSCLC, adeno) LXFA 629; assay: CFA, LXFA 629; type: cell-based, human; conditions: PDX/CFA
Experimental: (§1) CFA was performed by Charles River Laboratories (Freiburg, Germany) in 96-well plate format according to a modified two-layer soft agar assay. The origin of the tumor xenografts has been described (Fiebig et al. 1989, incorporated herein by reference). The list of tumors used in this study is detailed in Table 1.

[2] = system: Lung (SCLC) LXFS 573; assay: CFA, LXFS 573; type: cell-based, human; conditions: PDX/CFA
Experimental: as §1

[3] = Phase 2a in subjects with actinic keratosis, safety; type: in vivo, human
Experimental: (§2) The Phase 2 clinical trial was a multiple-center randomized, double-blind, placebo-controlled, parallel-cohorts study to evaluate the efficacy, safety, tolerability, and pharmacokinetics of once-daily application of topical Formula C ointment (QD 200 mg) for 28 days in subjects with actinic keratosis. Subjects were followed for one or two months after they completed treatment (through day 56 or day 84). The primary and exploratory efficacy endpoints for the study were reduction in the number of lesions on days 56 and 84, respectively. Subjects were randomly assigned in a double-blind fashion to one of three parallel treatment cohorts (5%, or 10% Formula C, or placebo) at a ratio of 1:1:1. To qualify for the study, subjects aged 18 (inclusive) or older must have had 4-8 discrete Grade 1 or 2 AK lesions within a 25-centimeter squared area of the skin of their scalp or face. The study enrolled 93 subjects in the US and Israel.

[4] = system: Leukemia (ALL) LEXFAL CCRF-CEM; assay: CFA, LEXFAL CCRF-CEM; type: cell-based, human; conditions: Cell line/CFA
Experimental: as §1

[5] = system: Lung (NSCLC, epidermoid) LXFE 772; assay: CFA, LXFE 772; type: cell-based, human; conditions: PDX/CFA
Experimental: as §1

[6] = system: A431 cells; assay: Apoptosis: cleaved caspase-3 ELISA, A431 cells; type: cell-based, human; conditions: within 6 hours of treatment
Experimental: (§3) Apoptosis induction was determined by semi-quantification of cytochrome C levels in the mitochondrial fraction analyzed by WB, following 2 hours of treatment with Formula C in A431 cells. Cleaved caspase-3 levels were analyzed following 6 hours of Formula C treatment in A431 cells, using PathScan® Cleaved Caspase-3 Sandwich ELISA kit (CST, Danvers, MA).

[7] = system: AK lesions; assay: Phase 2a in subjects with actinic keratosis, efficacy (lesion count); type: in vivo, human
Experimental: as §2

[8] = system: Head & Neck HNXF 2205; assay: CFA, HNXF 2205; type: cell-based, human; conditions: PDX/CFA
Experimental: as §1

[9] = system: CTCL cell line MJ; assay: PrestoBlue cell viability, MJ; type: cell-based, human; conditions: 72 hours, read-out: absolute IC50, cell viability
Experimental: Cutaneous T-cell lymphoma (CTCL) cell lines MJ and Hut78 were purchased from ATCC (CRL-8294, and TIB-161, respectively). Cells were grown in Iscove's Modified Dulbecco's Media supplemented with 2 mM L-glutamine, 10% fetal bovine serum, 100 U/mL of penicillin and 0.1 mg/mL of streptomycin.
Cells (1-2×10^4) were seeded in 96-well plates and treated with Formula C. Cell viability was determined 72 hours later using PrestoBlue reagent according to manufacturer's instruction (Life Technologies). The percentage of viability was expressed according to the fluorescence emitted by Formula C-treated cells compared to DMSO-treated control cells. The florescence emission values at 590 nm were measured with the plate-reader Spark 10M—multimode microplate reader (TECAN).

[10] = system: Skin SCC SKXF 1834; assay: CFA, SKXF 1834; type: cell-based, human; conditions: PDX/CFA
Experimental: as §1

[11] = AK/cSCC mouse model of chronic UVB exposure: local and general tolerability; type: in vivo; conditions: UVB-exposed SKH-1 mice, Day 1 through Day 50
Experimental: The formulation ingredients for vehicle, 2.5%, and 5% Formula C ointment consisted of: 32% Gelucire44/14® (Gattefosse, Saint-Priest, France), and 68% combined Labrasol® (Gattefosse, Saint-Priest, France) with corresponding amount of Formula C (w/w). New ointments were prepared every 2 weeks. The 40% topical solution was prepared just prior to use by mixing (w/w) 60% propylene glycol (Sigma, St. Louis, MO, USA) with 40% Formula C.
The effect of Formula C on cell proliferation and apoptosis was tested in an AK/cSCC mouse model of chronic UVB exposure. Forty-eight SKH-1 hairless female mice were chronically exposed to UVB radiation for 16 weeks. By that time, more than 60% of the animals had developed at least one SCC lesion. Three days after the final irradiation dose, the mice were randomly assigned to 1 of 4 treatment groups (N=12 mice/group) and a 50-day treatment phase started. Treatment groups included: vehicle, 2.5% or 5% Formula C ointment applied once-daily for 50 days, or 40% Formula C topical solution applied once-daily for the first 5 days of every three-week cycle (total of three treatment cycles).

[12] = system: Leukemia (AML) LEXFAM PL-21; assay: CFA, LEXFAM PL-21; type: cell-based, human; conditions: Cell line/CFA
Experimental: as §1

[13] = system: A431 cells; assay: Apoptosis: cytochrome C in mitochondrial fraction (WB), A431 cells; type: cell-based, human; conditions: within 2 hours of treatment, WB semi-quantification
Experimental: Antibodies used: anti-rabbit HK1 (C-20245) and HK2 (C-28765) from CST (Danvers, MA), anti-rabbit PPIA (ab41684, Abcam), anti-rabbit TIM22 (14927-1-AP, Proteintech Group Inc., Rosemont, IL), anti-rabbit Cytochrome C (PA1118, Boster Biological Technology, Pleasanton, CA). Detection was performed using secondary antibodies: peroxidase-conjugated Affinipure goat anti-rabbit IgG (H+L) or goat anti-mouse IgG (H+L) (111-035-003 and 115-035-003, Jackson ImmunoResearch, West Grove, PA), and development was using the ECL kit WesternBright™ ECL (K-12045-D10, Advansta, Menlo Park, California, USA).
as §3

[14] = system: Leukemia (BCLL) LEXFCM JURL-MK1; assay: CFA, LEXFCM JURL-MK1; type: cell-based, human; conditions: Cell line/CFA
Experimental: as §1

[15] = system: Liver (HCC) LIXFH Hep G2; assay: CFA, LIXFH Hep G2; type: cell-based, human; conditions: Cell line/CFA
Experimental: as §1

[16] = system: Leukemia (AML) LEXFAM NOMO-1; assay: CFA, LEXFAM NOMO-1; type: cell-based, human; conditions: Cell line/CFA
Experimental: as §1

[17] = system: Lymphoma (Non-Hodgkin) LYXF MY-LA; assay: CFA, LYXF MY-LA; type: cell-based, human; conditions: Cell line/CFA
Experimental: as §1

CC/C=C\CC1C(=O)CCC1CC(=O)Oc1cccc2cccnc12 (stereo not drawn) [Formula C]
IC50 [1]: 1380 nM | IC50 [2]: 1940 nM | serious adverse events (deemed unrelated) ([3]; 5% group): 1 elective surgery | treatment-emergent AEs deemed related to the study drug ([3]; 5% group, listed as VDA-1102): 1 mild dyspepsia and 1 mild hypopigmentation | serious adverse events (deemed unrelated) ([3]; 10% group): 1 acute pneumonia | clinically significant changes at application sites (Local Skin Reactions), vital signs, physical examinations, clinical laboratory results, ECGs ([3]; any subject, any time point): No clinically significant changes | safety signals ([3]; subjects with AK, 5% or 10% ointment QD 28 days): No safety signals | IC50 [4]: 206 nM | IC50 [5]: 3780 nM | cellular levels of cleaved caspase-3 [6]: increase in cellular levels of cleaved caspase-3 | mean reduction in total lesion count from baseline on Day 56 ([7]; ITT-face subgroup, 10% ointment, adjusted to age and gender, P=0.023 vs Placebo): 38.8%±36.4% | median reduction in total lesion count ([7]; PP-face subgroup, 10% ointment): 50.0% | mean reduction in total lesion count from baseline on Day 56 ([7]; full ITT population (face or scalp), 10% ointment QD 200 mg 28 days, adjusted by site, age, gender, treatment field location): 32.1%±34.1% | median reduction in total lesion count from baseline on Day 56 ([7]; full Per Protocol (PP) population, 10% ointment): 25.0% | IC50 [8]: 3960 nM | IC50 [9]: 1770 nM | IC50 [10]: 742 nM | adverse local skin reactions ([11]; 2.5%, 5% ointment or 40% topical solution): no adverse local skin reactions of any kind | body weight abnormalities [11]: no abnormalities in body weight | clinical signs [11]: no clinical signs | erythema or edema [11]: no erythema or edema | IC50 [12]: 1740 nM | cytochrome C levels in the mitochondrial fraction [13]: reduction of cytochrome C levels | IC50 [14]: 1670 nM | IC50 [15]: 5200 nM | IC50 [16]: 1420 nM | IC50 [17]: 1000 nM
